Data set [1] in a line: RU-486 and emetine composition pharmacokinetics study (RU-486 blood concentrations by HPLC). It is filed as in vivo. The following applies: human, plasma, po, one tablet (10 mg RU-486) orally, eight subjects per group. The protocol:
Experiment 4: RU-486 and Emetine Composition Pharmacokinetics Studies
The studies were carried out with two test groups in parallel. The first group used the composite tablets according to preparation I described below (10 mg RU-486 and 8.4 mg emetine). The control group used tablets containing only 10 mg RU-486. The two types of tablets were similarly prepared, and they had the same appearance. A total of sixteen test subjects were involved, eight in each group. Each test subject was given one pill and blood samples were collected at 0, 0.33, 0.5, 0.75, 1, 1.5, 2, 3, 4, 6, 8, 12, 24, 48, 72, 96, and 120 hours for the determination of RU-486 concentrations in order to calculate Cmax, Tmax, AUC0-120, AUC0-∞, and T1/2 pharmacokinetics parameters.
Experiment 5: Analysis of Pharmacokinetics Samples
RU-486 blood concentration determinations: The analysis used calibrated HPLC. Calibration was performed for a concentration range from 5 to 5000 ng/ml. The internal standard for the analysis was metoclopramide, at 20 ng/ml, 400 ng/ml, and 4000 ng/ml as quality control. The lowest detectable concentration (LOQ) is 5 ng/ml.
Plasma sample preparation: Plasma (0.2 ml) was placed in a test tube, to which metoclopramide (25 μL; 7.5 ng/μL) was added as internal standard, followed by 50 μL of 0.2 M K2HPO4. The mixture was mixed by shaking for 30 seconds. Then, 3 ml of tert-butyl methyl ether was added as the extraction reagent. The mixture was mixed by shaking for 60 seconds before centrifuged at 3,000 rpm for 5 minutes. The upper clear solution was removed and placed into another test tube. This clear solution was dry with a stream of N2. To the dried residue, 200 μL of mobile phase was added. The tube was shaken for 60 seconds. Each injection used 30 μL of sample.

For data set [2], the system named is pregnancy. The following applies: RU-486 at 50 mg or 10 mg; cited from earlier work.
For data set [3], the system named is pregnancy. The following applies: cited from earlier work.
In a further data set the test system is menstrual cycle. The following applies: RU-486 given late in the follicular phase; cited from earlier work.

In general, Tmax refers to the time from dosing to the highest level. On to `CC#C[C@]1(O)CC[C@H]2[C@@H]3CCC4=CC(=O)CCC4=C3[C@@H](c3ccc(N(C)C)cc3)C[C@@]21C` [Mifepristone, 17β-hydroxy-11β-(4-dimethylaminophenyl)-17α-(1-propynyl)-estra-4,9-dien-3-one], for which, in data set [1], the Tmax came out at 0.91 ± 0.19 h. In addition, the AUC(0-t) in data set [1] (read-out: AUC0-120 of RU-486) worked out at 8720 ± 1470 ng·h/mL. The AUC(0-inf) in data set [1] (read-out: AUC0-∞ of RU-486) amounted to 9420 ± 1550 ng·h/mL. Further, in data set [1] (read-out: T1/2 of RU-486 (converted)), the half-life is 35.2 ± 2.86 h. Further, the “morning after pregnancy prevention effect” value in the data set on pregnancy [2] is listed as “same effect as 500 mg”. Also, the result with abortion in the data set on pregnancy [3] (200 mg or 150 mg of RU-486) is recorded as “good results with abortion”. Besides, in the data set on pregnancy [3] (600 mg RU-486 and 400 mg misprostol, within the first 49 days of pregnancy), the “success rate of early termination of pregnancy” value is 97%. Also, the “prolongation of the follicular phase” value in the data set on menstrual cycle is 10 to 15 days.

The values above are taken from patent US20050220715A1, “Methods and compositions for improving drug safety” (Lotus Pharmaceutical Co., Ltd., priority 2004, published 2005).
